Each compound was assayed against STAT3 (Homo sapiens, UniProt P40763) (assay: STAT3 HiBiT degradation assay in transfected A549 cells). Settings: A549, 24 h; read-out: STAT3 HiBiT A549 degradation 24 h: Average external-Abs DC50.
Assay type: cell-based
Design: expressed in transfected cells; host or cells: A549
Summary of the method: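 Transfected A549 cells (~2000/well) plated 24 h, then treated 24 h at 37 °C, 5% CO2 with a 3-fold, 10-point compound dilution. HiBiT lytic luminescence read after 10 min at room temperature; remaining STAT3 normalized to negative and positive controls, four-parameter fit. DC50 binned A <0.01, B 0.01–0.1, C 0.1–1.0, D >1.0 µM.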

Chain of STAT3 (P40763 whole entry): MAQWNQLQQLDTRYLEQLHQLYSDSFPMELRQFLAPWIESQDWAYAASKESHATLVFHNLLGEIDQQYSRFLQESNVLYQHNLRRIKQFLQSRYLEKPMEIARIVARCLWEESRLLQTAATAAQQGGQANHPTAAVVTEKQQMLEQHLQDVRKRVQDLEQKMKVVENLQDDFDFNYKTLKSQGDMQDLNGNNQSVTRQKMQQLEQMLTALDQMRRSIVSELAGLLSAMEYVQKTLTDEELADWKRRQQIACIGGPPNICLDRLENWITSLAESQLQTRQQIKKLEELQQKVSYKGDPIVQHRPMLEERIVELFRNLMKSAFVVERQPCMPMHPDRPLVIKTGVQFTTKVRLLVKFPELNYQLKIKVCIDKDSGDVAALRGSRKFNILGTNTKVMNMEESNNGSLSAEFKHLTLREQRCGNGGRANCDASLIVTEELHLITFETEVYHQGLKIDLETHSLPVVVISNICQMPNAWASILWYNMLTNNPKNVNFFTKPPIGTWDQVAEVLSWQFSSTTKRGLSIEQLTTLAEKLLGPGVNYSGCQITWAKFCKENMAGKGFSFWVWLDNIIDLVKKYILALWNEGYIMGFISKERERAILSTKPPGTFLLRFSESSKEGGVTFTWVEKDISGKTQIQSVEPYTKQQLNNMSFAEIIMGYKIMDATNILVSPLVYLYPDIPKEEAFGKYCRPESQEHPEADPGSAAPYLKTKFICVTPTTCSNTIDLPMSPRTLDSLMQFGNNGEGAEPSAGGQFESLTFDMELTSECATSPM

First: Cc1ncsc1-c1ccc([C@H](C)NC(=O)[C@@H]2C[C@@H](O)CN2C(=O)[C@@H](NC(=O)CCCCCc2cc(F)cc(OC[C@H](CCC(N)=O)NC(=O)[C@@H]3Cc4cccc5c4N3C(=O)[C@@H](NC(=O)c3cc4cc(C(=O)P(=O)(O)O)ccc4[nH]3)CC5)c2)C(C)(C)C)cc1 [Compound I-216, 2-[[(2S,11S)-2-[[(2S)-4-carbamoyl-1-[3-fluoro-5-(5-[[(2S)-1-[(2S,4R)-4-hydroxy-2-[[(1S)-1-[4-(4-methyl-1,3-thiazol-5-yl)phenyl]ethyl]carbamoyl]pyrrolidin-1-yl]-3,3-dimethyl-1-oxobutan-2-yl]carbamoyl]pentyl)phenoxy]butan-2-yl]carbamoyl]-12-oxo-1-azatricyclo[6.4.1.0^[4,13]]trideca-4(13),5,7-trien-11-yl]carbamoyl]-1H-indole-5-carbonylphosphonic acid]
Second: Cc1ncsc1-c1ccc([C@H](C)NC(=O)[C@@H]2C[C@@H](O)CN2C(=O)[C@@H](NC(=O)CCCCCc2cccc(OC[C@H](CCC(N)=O)NC(=O)[C@@H]3Cc4cccc5c4N3C(=O)[C@@H](NC(=O)c3cc4cc(C(=O)P(=O)(O)O)ccc4[nH]3)CC5)c2F)C(C)(C)C)cc1 [Compound I-217, 2-[[(2S,11S)-2-[[(2S)-4-carbamoyl-1-[2-fluoro-3-(5-[[(2S)-1-[(2S,4R)-4-hydroxy-2-[[(1S)-1-[4-(4-methyl-1,3-thiazol-5-yl)phenyl]ethyl]carbamoyl]pyrrolidin-1-yl]-3,3-dimethyl-1-oxobutan-2-yl]carbamoyl]pentyl)phenoxy]butan-2-yl]carbamoyl]-12-oxo-1-azatricyclo[6.4.1.0^[4,13]]trideca-4(13),5,7-trien-11-yl]carbamoyl]-1H-indole-5-carbonylphosphonic acid]
The DC50 of the first is higher: 0.01 to 0.1 µM for the first, under 0.01 µM for the second.

First: Cc1cc(CO[C@H](C)[C@H](CCC(N)=O)NC(=O)[C@@H]2Cc3cccc4c3N2C(=O)[C@@H](NC(=O)c2cc3cc(C(=O)P(=O)(O)O)ccc3[nH]2)CC4)ccc1CCCCC(=O)N[C@H](C(=O)N1C[C@H](O)C[C@H]1C(=O)N[C@@H](C)c1ccc(-c2scnc2C)cc1)C(C)(C)C [Compound I-218, diammonium 2-[[(2S,11S)-2-[[(3S,4R)-1-carbamoyl-4-[[4-(4-[[(2S)-1-[(2S,4R)-4-hydroxy-2-[[(1S)-1-[4-(4-methyl-1,3-thiazol-5-yl)phenyl]ethyl]carbamoyl]pyrrolidin-1-yl]-3,3-dimethyl-1-oxobutan-2-yl]carbamoyl]butyl)-3-methylphenyl]methoxy]pentan-3-yl]carbamoyl]-12-oxo-1-azatricyclo[6.4.1.0^[4,13]]trideca-4(13),5,7-trien-11-yl]carbamoyl]-1H-indole-5-carbonylphosphonate]
Second: Cc1cc(CCCCC(=O)N[C@H](C(=O)N2C[C@H](O)C[C@H]2C(=O)N[C@@H](C)c2ccc(-c3scnc3C)cc2)C(C)(C)C)ccc1CO[C@H](C)[C@H](CCC(N)=O)NC(=O)[C@@H]1Cc2cccc3c2N1C(=O)[C@@H](NC(=O)c1cc2cc(C(=O)P(=O)(O)O)ccc2[nH]1)CC3 [Compound I-226, 2-[[(2S,11S)-2-[[(3S,4R)-1-carbamoyl-4-[[4-(4-[[(2S)-1-[(2S,4R)-4-hydroxy-2-[[(1S)-1-[4-(4-methyl-1,3-thiazol-5-yl)phenyl]ethyl]carbamoyl]pyrrolidin-1-yl]-3,3-dimethyl-1-oxobutan-2-yl]carbamoyl]butyl)-2-methylphenyl]methoxy]pentan-3-yl]carbamoyl]-12-oxo-1-azatricyclo[6.4.1.0^[4,13]]trideca-4(13),5,7-trien-11-yl]carbamoyl]-1H-indole-5-carbonylphosphonic acid]
The DC50 of the first is lower: under 0.01 µM for the first, 0.01 to 0.1 µM for the second.

`Cc1ncsc1-c1ccc([C@H](C)NC(=O)[C@@H]2C[C@@H](O)CN2C(=O)[C@@H](NC(=O)CCCCCc2cccc(O[C@H](C)[C@H](CCC(N)=O)NC(=O)[C@@H]3Cc4cccc5c4N3C(=O)[C@@H](NC(=O)c3cc4cc(C(=O)P(=O)(O)O)ccc4[nH]3)CC5)c2)C(C)(C)C)cc1` [Compound I-219, 2-[[(2S,11S)-2-[[(3S,4R)-1-carbamoyl-4-[3-(5-[[(2S)-1-[(2S,4R)-4-hydroxy-2-[[(1S)-1-[4-(4-methyl-1,3-thiazol-5-yl)phenyl]ethyl]carbamoyl]pyrrolidin-1-yl]-3,3-dimethyl-1-oxobutan-2-yl]carbamoyl]pentyl)phenoxy]pentan-3-yl]carbamoyl]-12-oxo-1-azatricyclo[6.4.1.0^[4,13]]trideca-4(13),5,7-trien-11-yl]carbamoyl]-1H-indole-5-carbonylphosphonic acid] and `Cc1ncsc1-c1ccc([C@H](C)NC(=O)[C@@H]2C[C@@H](O)CN2C(=O)[C@@H](NC(=O)CCCCc2ccc(CO[C@H](C)[C@H](CCC(N)=O)NC(=O)[C@@H]3Cc4cccc5c4N3C(=O)[C@@H](NC(=O)c3cc4cc(C(=O)P(=O)(O)O)ccc4[nH]3)CC5)c(F)c2)C(C)(C)C)cc1` [Compound I-225, diammonium 2-[[(2S,11S)-2-[[(3S,4R)-1-carbamoyl-4-[[2-fluoro-4-(4-[[(2S)-1-[(2S,4R)-4-hydroxy-2-[[(1S)-1-[4-(4-methyl-1,3-thiazol-5-yl)phenyl]ethyl]carbamoyl]pyrrolidin-1-yl]-3,3-dimethyl-1-oxobutan-2-yl]carbamoyl]butyl)phenyl]methoxy]pentan-3-yl]carbamoyl]-12-oxo-1-azatricyclo[6.4.1.0^[4,13]]trideca-4(13),5,7-trien-11-yl]carbamoyl]-1H-indole-5-carbonylphosphonate] fall in the same range of DC50: 0.1 to 1 µM for the first, 0.1 to 1 µM for the second.

First: Cc1ncsc1-c1ccc([C@H](C)NC(=O)[C@@H]2C[C@@H](O)CN2C(=O)[C@@H](NC(=O)CCCCCc2cccc(CNC(=O)[C@H](CCC(N)=O)NC(=O)[C@@H]3Cc4cccc5c4N3C(=O)[C@@H](NC(=O)c3cc4cc(C(=O)P(=O)(O)O)ccc4[nH]3)CC5)c2)C(C)(C)C)cc1 [Compound I-220, 2-[[(2S,11S)-2-[[(1S)-3-carbamoyl-1-([[3-(5[[(2S)-1-[(2S,4R)-4-hydroxy-2-[[(1S)-1-[4-(4-methyl-1,3-thiazol-5-yl)phenyl]ethyl]carbamoyl]pyrrolidin-1-yl]-3,3-dimethyl-1-oxobutan-2-yl]carbamoyl]pentyl)phenyl]methyl]carbamoyl)propyl]carbamoyl]-12-oxo-1-azatricyclo[6.4.1.0^[4,13]]trideca-4(13),5,7-trien-11-yl]carbamoyl]-1H-indole-5-carbonylphosphonic acid]
Second: Cc1ncsc1-c1ccc(CNC(=O)[C@@H]2C[C@@H](O)CN2C(=O)[C@@H](NC(=O)CCCCCc2cccc(CNC(=O)[C@H](CCC(N)=O)NC(=O)[C@@H]3Cc4cccc5c4N3C(=O)[C@@H](NC(=O)c3cc4cc(C(=O)P(=O)(O)O)ccc4[nH]3)CC5)c2)C(C)(C)C)cc1 [Compound I-222, 2-[[(2S,11S)-2-[[(1S)-3-carbamoyl-1--([[3-(5-[[(2S)-1-[(2S,4R)-4-hydroxy-2-([[4-(4-methyl-1,3-thiazol-5-yl)phenyl]methyl]carbamoyl)pyrrolidin-1-yl]-3,3-dimethyl-1-oxobutan-2-yl]carbamoyl]pentyl)phenyl]methyl]carbamoyl)propyl]carbamoyl]-12-oxo-1-azatricyclo[6.4.1.0^[4,13]]trideca-4(13),5,7-trien-11-yl]carbamoyl]-1H-indole-5-carbonylphosphonic acid]
The DC50 of the first is lower: 0.1 to 1 µM for the first, over 1 µM for the second.

First: Cc1ncsc1-c1ccc(CNC(=O)[C@@H]2C[C@@H](O)CN2C(=O)[C@@H](NC(=O)CCCCc2cccc(OC[C@H](CCC(N)=O)NC(=O)[C@@H]3Cc4cccc5c4N3C(=O)[C@@H](NC(=O)c3cc4cc(C(=O)P(=O)(O)O)ccc4[nH]3)CC5)c2)C(C)(C)C)cc1 [Compound I-221]
Second: Cc1ncsc1-c1ccc(CNC(=O)[C@@H]2C[C@@H](O)CN2C(=O)[C@@H](NC(=O)CCCCCc2cccc(CC[C@H](CCC(N)=O)NC(=O)[C@@H]3Cc4cccc5c4N3C(=O)[C@@H](NC(=O)c3cc4cc(C(=O)P(=O)(O)O)ccc4[nH]3)CC5)c2)C(C)(C)C)cc1 [Compound I-224, diammonium 2-[[(2S,11S)-2-[[(3R)-1-carbamoyl-5-[3-[5-[[(2S)-1-[(2S,4R)-4-hydroxy-2-([[4-(4-methyl-1,3-thiazo1-5-yl)phenyl]methyl]carbamoyl)pyrrolidin-1-yl]-3,3-dimethyl-1-oxobutan-2-yl]carbamoyl]pentyl)phenyl]pentan-3-yl]carbamoyl]-12-oxo-1-azatricyclo[6.4.1.0^[4,13]]trideca-4(13),5,7-trien-11-yl]carbamoyl]-1H-indole-5-carbonylpho sphonate]
The DC50 of the first is lower: 0.01 to 0.1 µM for the first, over 1 µM for the second.

`Cc1ncsc1-c1ccc(CNC(=O)[C@@H]2C[C@@H](O)CN2C(=O)[C@@H](NC(=O)C2(CCCc3ccc(CO[C@H](C)[C@H](CCC(N)=O)NC(=O)[C@@H]4Cc5cccc6c5N4C(=O)[C@@H](NC(=O)c4cc5cc(C(=O)P(=O)(O)O)ccc5[nH]4)CC6)cc3)CC2)C(C)(C)C)cc1` [Compound I-223, diammonium 2-[[(2S,11S)-2-[[(3S,4R)-1-carbamoyl-4-([4-[3-(1-[[(2S)-1-[(2S,4R)-4-hydroxy-2-([[4-(4-methyl-1,3-thiazol-5-yl)phenyl]methyl]carbamoyl)pyrrolidin-1-yl]-3,3-dimethyl-1-oxobutan-2-yl]carbamoyl]cyclopropyl)propyl]phenyl]methoxy)pentan-3-yl]carbamoyl]-12-oxo-1-azatricyclo[6.4.1.0^[4,13]]trideca-4(13),5,7-trien-11-yl]carbamoyl]-1H-indole-5-carbonylphosphonate] and `Cc1ncsc1-c1ccc([C@H](C)NC(=O)[C@@H]2C[C@@H](O)CN2C(=O)[C@@H](NC(=O)CCCCc2ccc(CO[C@H](C)[C@H](CCC(N)=O)NC(=O)[C@@H]3Cc4cccc5c4N3C(=O)[C@@H](NC(=O)c3cc4cc(C(=O)P(=O)(O)O)ccc4[nH]3)CC5)cc2)C(C)(C)C)cc1` [Compound I-227] fall in the same range of DC50: 0.1 to 1 µM for the first, 0.1 to 1 µM for the second.
